{"source": "patent US20240065998A1", "about": "“MONOACYLGLYCEROL AND FREE FATTY ACID-BASED COMPOSITIONS, METHODS OF MANUFACTURING AND USE OF THE SAME” (priority 2021, published 2024)", "key": {"[1]": {"details": "cited from earlier work; for HLB: exemplary HLB value of the single emulsifier"}, "[2]": {"test_system": "Respiratory syncytial virus (RSV, A2)", "assay_type": "cell-based", "details": "70%, 2 min, 37 ± 2° C.; for LRV: VC titer 3.3"}, "[3]": {"test_system": "titer assay cells (MA-104, Vero E6, Vero 76)"}, "[4]": {"test_system": "SARS-CoV-2, USA_WA1/2020", "assay_type": "cell-based", "details": "70%, 2 min, 37 ± 2° C."}, "[5]": {"test_system": "Herpes simplex-1 (HSV-1, H1KOS S1)", "experiment": "Virucidal assay, 2 minute contact, end-point dilution (CCID50, LRV)", "assay_type": "cell-based", "details": "70%, 2 min, 37 ± 2° C."}, "[6]": {"experiment": "HLB values of compositional components", "details": "share in the oil phase of ACv14 (% of oil phase x rHLB); Total = sum", "excerpt": "HLB is typically considered when planning oil-in-water cream formulations according to the requirements of the cream.\nIf the Oat EMO is omitted and the Flax FFA oil raised, then a higher rHLB is required, meaning that a larger percentage of the emulsifier can be high HLB (S-20). This 0% Oat MAG (EMO) and 4% Flaxseed FFA oil combo gives an rHLB value of 12.64, which would coincide with a 25/75 ratio of S-2/S-20 or Monolaurin/S-20. This would minimize the amount of S-2 which caused larger coalescence at a 1:1 ratio overnight."}, "[7]": {"test_system": "Respiratory Syncytial Virus (RSV), Herpes Simplex Virus (HSV), H1N1 flu virus, and SARS-CoV-2", "assay_type": "cell-based", "details": "nEMO at 0.5 to 50 mg/mL, EtOH 70%", "excerpt": "Table 73 below provides formulations of a nEMO sanitizer with 0.5% nEMO, 29.5% glycerol, and 70% […]."}}, "note": "Like-named read-outs stand apart in the source and are kept apart here."}
{"compound": "Glyceryl Stearate SE", "values": [{"measurement": "HLB", "setting": "[1]", "value": 5.8}]}
{"compound": "CCO", "note": "[Ethanol]", "values": [{"measurement": "Virus Titer", "setting": "[2]; Table 57A", "value": "<0.7 log10 CCID50 of virus per 0.1 mL"}, {"measurement": "LRV", "setting": "[2]; Table 57A", "value": ">2.6"}, {"measurement": "Virus Titer", "setting": "[2]; Table 57B", "value": "<0.7 log10 CCID50 of virus per 0.1 mL"}, {"measurement": "LRV", "setting": "[2]; Table 57B", "value": ">2.6"}, {"measurement": "Toxicity (highest dilution of the endpoint titer with full (80-100%) cytotoxicity)", "setting": "[3]", "value": "None"}, {"measurement": "Virus Titer", "setting": "[4]; Table 59A", "value": "<0.7 log10 CCID50 of virus per 0.1 mL"}, {"measurement": "LRV", "setting": "[4]; Table 59A, VC titer 5.3", "value": ">4.6"}, {"measurement": "Virus Titer", "setting": "[4]; Table 59B", "value": "<0.7 log10 CCID50 of virus per 0.1 mL"}, {"measurement": "LRV", "setting": "[4]; Table 59B, VC titer 5.0", "value": ">4.3"}, {"measurement": "LRV", "setting": "[5]; Table 60A, VC titer 4.5", "value": ">3.8"}, {"measurement": "LRV", "setting": "[5]; Table 60B, VC titer 5.0", "value": ">4.3"}]}
{"compound": "Steareth-2", "values": [{"measurement": "HLB", "setting": "[1]", "value": 4.9}]}
{"compound": "CCCCCCCCCCCC(=O)OCC(O)CO", "note": "(centres unmarked) [Glyceryl Laurate]", "values": [{"measurement": "HLB", "setting": "[1]", "value": 5.2}]}
{"compound": "CCCCCCCCCCCCCCCCO", "note": "[Cetyl Alcohol]", "values": [{"measurement": "rHLB of oil percentage", "setting": "[6]", "value": 3.69}, {"measurement": "Required HLB (rHLB)", "setting": "[1]; exemplary value of the oil phase component", "value": 15.5}]}
{"compound": "CCO", "note": "[EtOH]", "values": [{"measurement": "Virucidal Activity", "setting": "[7]; H1N1, Log10 of initial virus concentration 5.7", "value": ">99.99", "unit": "%"}, {"measurement": "Virucidal Activity", "setting": "[7]; HSV, Log10 of initial virus concentration 5", "value": ">99.99", "unit": "%"}, {"measurement": "Virucidal Activity", "setting": "[7]; RSV, Log10 of initial virus concentration 3.3", "value": ">99", "unit": "%"}, {"measurement": "Virucidal Activity", "setting": "[7]; SARS-COV-2, Log10 of initial virus concentration 5", "value": ">99.99", "unit": "%"}]}
